# Tested on: MV-4-11 cells
# Test: Gene expression microarray analysis (Affymetrix PrimeView) and GSEA
# Assay type: cell-based, human
# Set-up: RFU PODN (11730768_x_at) / Fold change /veh PODN (11730768_x_at) / RFU LINC00158 (11744669_a_at) / Fold change /veh LINC00158 (11744669_a_at) / RFU DUSP10 (11751237_a_at) / Fold change /veh DUSP10 (11751237_a_at) / RFU ID3 (11757404_x_at) / Fold change /veh ID3 (11757404_x_at) / RFU PLEKHG5 (11737974_s_at) / Fold change /veh PLEKHG5 (11737974_s_at) / RFU LRRC4B (11730491_at) / Fold change /veh LRRC4B (11730491_at) / RFU GIMAP4 (11747438_a_at) / Fold change /veh GIMAP4 (11747438_a_at) / RFU KRT8 (11758183_x_at) / Fold change /veh KRT8 (11758183_x_at) / RFU CNN1 (11734310_a_at) / Fold change /veh CNN1 (11734310_a_at) / RFU VPS37D (11726825_at) / Fold change /veh VPS37D (11726825_at) / RFU C10orf10 (11716522_x_at) / Fold change /veh C10orf10 (11716522_x_at) / RFU KIR2DL2 /// KIR2DL4 /// KIR2DL5A /// KIR2DL5B /// KIR2DS1 /// KIR2DS2 /// KIR2DS3 /// KIR2DS4 /// KIR3DL3 /// KIR3DL3 /// KIR3DS1 (11738374_at) / Fold change /veh KIR2DL2 /// KIR2DL4 /// KIR2DL5A /// KIR2DL5B /// KIR2DS1 /// KIR2DS2 /// KIR2DS3 /// KIR2DS4 /// KIR3DL3 /// KIR3DL3 /// KIR3DS1 (11738374_at) / RFU C1QL1 (11718748_at) / Fold change /veh C1QL1 (11718748_at) / RFU TMPRSS4 (11747572_a_at) / Fold change /veh TMPRSS4 (11747572_a_at) / RFU HAMP (11756126_x_at) / Fold change /veh HAMP (11756126_x_at) / RFU RNFT2 (11725882_a_at) / Fold change /veh RNFT2 (11725882_a_at) / RFU NR4A2 (11747474_a_at) / Fold change /veh NR4A2 (11747474_a_at) / RFU ABCC12 (11746883_a_at) / Fold change /veh ABCC12 (11746883_a_at) / RFU TMEM136 (11760407_x_at) / Fold change /veh TMEM136 (11760407_x_at) / RFU CLDN22 /// WWC2 (11732394_at) / Fold change /veh CLDN22 /// WWC2 (11732394_at) / RFU HLA-DPB1 (11760878_x_at) / Fold change /veh HLA-DPB1 (11760878_x_at) / RFU SPINT1 (11716480_a_at) / Fold change /veh SPINT1 (11716480_a_at) / RFU GAP43 (11754022_s_at) / Fold change /veh GAP43 (11754022_s_at) / RFU A4GNT (11735810_at) / Fold change /veh A4GNT (11735810_at) / RFU PRB3 (11715151_x_at) / Fold change /veh PRB3 (11715151_x_at) / RFU TUBB4B (11761932_at) / Fold change /veh TUBB4B (11761932_at) / RFU CAPN14 (11732068_a_at) / Fold change /veh CAPN14 (11732068_a_at) / RFU TMCC2 (11721928_a_at) / Fold change /veh TMCC2 (11721928_a_at) / RFU IRGQ (11745062_a_at) / Fold change /veh IRGQ (11745062_a_at) / RFU FAM174B (11720279_a_at) / Fold change /veh FAM174B (11720279_a_at) / RFU TMPRSS4 (11748680_a_at) / Fold change /veh TMPRSS4 (11748680_a_at) / RFU FAM212B (11763350_a_at) / Fold change /veh FAM212B (11763350_a_at) / RFU PLEKHG5 (11743358_a_at) / Fold change /veh PLEKHG5 (11743358_a_at) / RFU ZSCAN30 (11745921_a_at) / Fold change /veh ZSCAN30 (11745921_a_at) / RFU CMKLR1 (11741424_a_at) / Fold change /veh CMKLR1 (11741424_a_at) / RFU LOC101060620 /// MAPK8IP1 (11723275_at) / Fold change /veh LOC101060620 /// MAPK8IP1 (11723275_at) / RFU SPTSSB (11747773_x_at) / Fold change /veh SPTSSB (11747773_x_at) / RFU PRSS12 (11739890_at) / Fold change /veh PRSS12 (11739890_at) / RFU BIN1 (11741810_x_at) / Fold change /veh BIN1 (11741810_x_at) / RFU WNT11 (11732464_a_at) / Fold change /veh WNT11 (11732464_a_at) / RFU C10orf10 (11716521_a_at) / Fold change /veh C10orf10 (11716521_a_at) / RFU C5orf56 (11738089_at) / Fold change /veh C5orf56 (11738089_at) / RFU CYB561 (11721691_x_at) / Fold change /veh CYB561 (11721691_x_at) / RFU ANKRD19P (11752326_a_at) / Fold change /veh ANKRD19P (11752326_a_at) / RFU OR2T12 /// OR2T33 /// OR2T8 (11738714_s_at) / Fold change /veh OR2T12 /// OR2T33 /// OR2T8 (11738714_s_at) / RFU VCAN (11748164_a_at) / Fold change /veh VCAN (11748164_a_at) / RFU JSRP1 (11732532_at) / Fold change /veh JSRP1 (11732532_at) / RFU KRTAP10-11 (11738290_x_at) / Fold change /veh KRTAP10-11 (11738290_x_at) / RFU MYO3A (11730013_a_at) / Fold change /veh MYO3A (11730013_a_at) / RFU EBF3 (11725865_a_at) / Fold change /veh EBF3 (11725865_a_at) / RFU CAMK2N1 (11719241_x_at) / Fold change /veh CAMK2N1 (11719241_x_at) / RFU C5orf56 (11738088_a_at) / Fold change /veh C5orf56 (11738088_a_at) / RFU OLFML3 (11715873_a_at) / Fold change /veh OLFML3 (11715873_a_at) / RFU LOC100653217 /// NTM (11731650_a_at) / Fold change /veh LOC100653217 /// NTM (11731650_a_at) / RFU MAPK11 (11762145_a_at) / Fold change /veh MAPK11 (11762145_a_at) / RFU FIZ1 (11724087_x_at) / Fold change /veh FIZ1 (11724087_x_at) / RFU OASL (11726364_x_at) / Fold change /veh OASL (11726364_x_at) / RFU SOX15 (11748057_x_at) / Fold change /veh SOX15 (11748057_x_at) / RFU CD79A (11719716_a_at) / Fold change /veh CD79A (11719716_a_at) / RFU HIST1H1D (11736915_at) / Fold change /veh HIST1H1D (11736915_at) / RFU CASKIN2 (11723855_a_at) / Fold change /veh CASKIN2 (11723855_a_at) / RFU LOC730098 (11760151_x_at) / Fold change /veh LOC730098 (11760151_x_at) / RFU OR4N2 (11742367_at) / Fold change /veh OR4N2 (11742367_at) / RFU PRRT2 (11749266_a_at) / Fold change /veh PRRT2 (11749266_a_at) / RFU SNX32 (11753110_a_at) / Fold change /veh SNX32 (11753110_a_at) / RFU CDHR5 (11726645_a_at) / Fold change /veh CDHR5 (11726645_a_at) / RFU RCAN1 (11760418_a_at) / Fold change /veh RCAN1 (11760418_a_at) / RFU FAM167A (11723789_a_at) / Fold change /veh FAM167A (11723789_a_at) / RFU FAM26E (11764081_at) / Fold change /veh FAM26E (11764081_at) / RFU ISYNA1 (11749810_s_at) / Fold change /veh ISYNA1 (11749810_s_at) / RFU ACY1 (11761880_at) / Fold change /veh ACY1 (11761880_at) / RFU 11764098_at / Fold change /veh 11764098_at / RFU SAMD14 (11745864_x_at) / Fold change /veh SAMD14 (11745864_x_at) / RFU NPB (11741838_a_at) / Fold change /veh NPB (11741838_a_at) / RFU TMPRSS6 (11731388_a_at) / Fold change /veh TMPRSS6 (11731388_a_at) / RFU KRTAP10-2 (11738614_at) / Fold change /veh KRTAP10-2 (11738614_at) / RFU ARHGAP8 /// PRR5-ARHGAP8 (11727945_x_at) / Fold change /veh ARHGAP8 /// PRR5-ARHGAP8 (11727945_x_at) / RFU KRTAP5-7 /// NADSYN1 (11734609_at) / Fold change /veh KRTAP5-7 /// NADSYN1 (11734609_at) / RFU RASL12 (11751679_a_at) / Fold change /veh RASL12 (11751679_a_at) / RFU CDKN2B (11736163_a_at) / Fold change /veh CDKN2B (11736163_a_at) / RFU PRF1 (11729649_at) / Fold change /veh PRF1 (11729649_at) / RFU, ZNF638 /// ZNF638-IT1 / Fold change vs veh, ZNF638 /// ZNF638-IT1 / RFU, PANK3 / Fold change vs veh, PANK3 / RFU, SH3YL1 / Fold change vs veh, SH3YL1 / RFU, ZEB2 / Fold change vs veh, ZEB2 / RFU, NRIP1 / Fold change vs veh, NRIP1 / RFU, PTTG1IP / Fold change vs veh, PTTG1IP / RFU, CAPN2 / Fold change vs veh, CAPN2 / RFU, MED14 / Fold change vs veh, MED14 / RFU, SNORA58 / Fold change vs veh, SNORA58 / RFU, C1orf63 / Fold change vs veh, C1orf63 / RFU, LRRFIP1 / Fold change vs veh, LRRFIP1 / RFU, NDUFAF7 / Fold change vs veh, NDUFAF7 / RFU, SLC12A2 / Fold change vs veh, SLC12A2 / RFU, IBTK / Fold change vs veh, IBTK / RFU, ESF1 / Fold change vs veh, ESF1 / Fold change vs veh, TMEM50B / RFU, TAOK1 / Fold change vs veh, TAOK1 / RFU, ACBD3 / Fold change vs veh, ACBD3 / RFU, TMA16 / Fold change vs veh, TMA16 / RFU, RWDD3 / Fold change vs veh, RWDD3 / RFU, BCAT1 / Fold change vs veh, BCAT1 / RFU, EDEM3 / Fold change vs veh, EDEM3 / RFU, TMEM33 / Fold change vs veh, TMEM33 / RFU, WDR75 / Fold change vs veh, WDR75 / RFU, AHCTF1 / Fold change vs veh, AHCTF1 / RFU, TFRC / Fold change vs veh, TFRC / RFU, ZDHHC17 / Fold change vs veh, ZDHHC17 / RFU, NOM1 / Fold change vs veh, NOM1 / RFU, ARL8B / Fold change vs veh, ARL8B / RFU, ZBTB11 / Fold change vs veh, ZBTB11 / RFU, TAMM41 / Fold change vs veh, TAMM41 / RFU, KIAA1704 /// LOC100996395 / Fold change vs veh, KIAA1704 /// LOC100996395 / RFU, ING1 / Fold change vs veh, ING1 / RFU, TRMT61B / Fold change vs veh, TRMT61B / RFU, FUBP3 / Fold change vs veh, FUBP3 / RFU, TP53 / Fold change vs veh, TP53 / RFU, TNKS2 / Fold change vs veh, TNKS2 / RFU, ZFP14 / Fold change vs veh, ZFP14 / RFU, ACTR2 / Fold change vs veh, ACTR2 / RFU, PPP3R1 / Fold change vs veh, PPP3R1 / RFU, PIK3R1 / Fold change vs veh, PIK3R1 / RFU, HNRNPA1 / Fold change vs veh, HNRNPA1 / RFU, RNF170 / Fold change vs veh, RNF170 / RFU, ZNF28 / Fold change vs veh, ZNF28 / RFU, RNGTT / Fold change vs veh, RNGTT / RFU, OGT / Fold change vs veh, OGT / RFU, BRD1 / Fold change vs veh, BRD1 / RFU, MARS / Fold change vs veh, MARS / RFU, ZNF655 / Fold change vs veh, ZNF655 / RFU, FAHD1 / Fold change vs veh, FAHD1 / RFU, BDP1 / Fold change vs veh, BDP1 / RFU, LRRCC1 / Fold change vs veh, LRRCC1 / RFU, ARID1A / Fold change vs veh, ARID1A / RFU, ZNF146 / Fold change vs veh, ZNF146 / RFU, ZNF330 / Fold change vs veh, ZNF330 / RFU, GPN3 / Fold change vs veh, GPN3 / RFU, C9orf123 / Fold change vs veh, C9orf123 / RFU, N4BP2L2 / Fold change vs veh, N4BP2L2 / RFU, ARFIP1 / Fold change vs veh, ARFIP1 / RFU, FAM179B / Fold change vs veh, FAM179B / RFU, BCL10 / Fold change vs veh, BCL10 / RFU, UHRF1BP1L / Fold change vs veh, UHRF1BP1L / RFU, BET1 / Fold change vs veh, BET1 / RFU, CNOT2 / Fold change vs veh, CNOT2 / RFU, ZNF268 / Fold change vs veh, ZNF268 / Fold change vs veh, ZNF507 / RFU, DGCR2 / Fold change vs veh, DGCR2 / RFU, WDSUB1 / Fold change vs veh, WDSUB1 / Fold change vs veh, HSP90B1 /// MIR3652 / RFU, ADSS / Fold change vs veh, ADSS / RFU, GK / Fold change vs veh, GK / RFU, ZNF148 / Fold change vs veh, ZNF148 / RFU, TAF9 / Fold change vs veh, TAF9 / RFU, SLC1A5 / Fold change vs veh, SLC1A5 / RFU, SLMO2 / Fold change vs veh, SLMO2 / RFU, ABCC4 / Fold change vs veh, ABCC4 / RFU, LOC101060439 /// RAP1B / Fold change vs veh, LOC101060439 /// RAP1B / RFU, RFX7 / Fold change vs veh, RFX7 / RFU, GTPBP10 / Fold change vs veh, GTPBP10 / RFU, CNEP1R1 / Fold change vs veh, CNEP1R1 / RFU, BIVM-ERCC5 /// ERCC5 / Fold change vs veh, BIVM-ERCC5 /// ERCC5 / RFU, ILF3 / Fold change vs veh, ILF3 / RFU 11762660_at / Fold change /veh 11762660_at / RFU VCAN (11757783_s_at) / Fold change /veh VCAN (11757783_s_at) / RFU DDX43 (11728927_at) / Fold change /veh DDX43 (11728927_at) / RFU KRT8 (11758188_x_at) / Fold change /veh KRT8 (11758188_x_at) / RFU NKD1 (11759106_at) / Fold change /veh NKD1 (11759106_at) / RFU SRD5A1 (11742802_a_at) / Fold change /veh SRD5A1 (11742802_a_at) / RFU TPSAB1 /// TPSB2 (11721975_s_at) / Fold change /veh TPSAB1 /// TPSB2 (11721975_s_at) / RFU GSTM3 (11746129_a_at) / Fold change /veh GSTM3 (11746129_a_at) / RFU IL23R (11737362_x_at) / Fold change /veh IL23R (11737362_x_at) / RFU TMEM51 (11727254_a_at) / Fold change /veh TMEM51 (11727254_a_at) / RFU PIWIL2 (11732686_x_at) / Fold change /veh PIWIL2 (11732686_x_at) / RFU ORM1 (11744905_x_at) / Fold change /veh ORM1 (11744905_x_at) / RFU CCDC152 (11743942_at) / Fold change /veh CCDC152 (11743942_at) / RFU ECM1 (11717891_a_at) / Fold change /veh ECM1 (11717891_a_at) / RFU IL23R (11748794_a_at) / Fold change /veh IL23R (11748794_a_at) / RFU TNFAIP8L3 (11732012_x_at) / Fold change /veh TNFAIP8L3 (11732012_x_at) / RFU MBOAT4 (11741988_at) / Fold change /veh MBOAT4 (11741988_at) / RFU 11764193_at / Fold change /veh 11764193_at / RFU TMEM53 (11763286_at) / Fold change /veh TMEM53 (11763286_at) / RFU MAGEB2 (11727129_at) / Fold change /veh MAGEB2 (11727129_at) / RFU TMEM200A (11744735_a_at) / Fold change /veh TMEM200A (11744735_a_at) / RFU CCDC152 (11751479_a_at) / Fold change /veh CCDC152 (11751479_a_at) / RFU FAM211A (11726209_a_at) / Fold change /veh FAM211A (11726209_a_at) / RFU RGS16 (11746705_a_at) / Fold change /veh RGS16 (11746705_a_at) / RFU VCAN (11755009_s_at) / Fold change /veh VCAN (11755009_s_at) / RFU RHOB (11743442_s_at) / Fold change /veh RHOB (11743442_s_at) / RFU RGS16 (11720943_a_at) / Fold change /veh RGS16 (11720943_a_at) / RFU RGS16 (11720944_at) / Fold change /veh RGS16 (11720944_at) / RFU, VPS4B / Fold change vs veh, VPS4B / RFU, CREB1 / Fold change vs veh, CREB1 / RFU, DNAJC13 / Fold change vs veh, DNAJC13 / RFU, GNAQ / Fold change vs veh, GNAQ / RFU, CDK5R1 / Fold change vs veh, CDK5R1 / RFU, ZRANB3 / Fold change vs veh, ZRANB3 / RFU, CUL4A / Fold change vs veh, CUL4A / RFU, CCNY / Fold change vs veh, CCNY / RFU, UFL1 / Fold change vs veh, UFL1 / RFU, COG3 / Fold change vs veh, COG3 / RFU, DIAPH2 / Fold change vs veh, DIAPH2 / RFU, SKA2 / Fold change vs veh, SKA2 / RFU, AFF3 / Fold change vs veh, AFF3 / RFU, LMF1 / Fold change vs veh, LMF1 / RFU, IPO11 / Fold change vs veh, IPO11 / RFU, DFFB / Fold change vs veh, DFFB / RFU, FOXP1 / Fold change vs veh, FOXP1 / RFU, CARD8 / Fold change vs veh, CARD8 / RFU, STRN3 / Fold change vs veh, STRN3 / RFU, ADK / Fold change vs veh, ADK / RFU, RASSF2 / Fold change vs veh, RASSF2 / RFU, WIPF1 / Fold change vs veh, WIPF1 / RFU, LARP1B / Fold change vs veh, LARP1B / RFU, RASA1 / Fold change vs veh, RASA1 / RFU, RB1 / Fold change vs veh, RB1 / RFU, PPFIA1 / Fold change vs veh, PPFIA1 / RFU, MAT2A / Fold change vs veh, MAT2A / RFU, CCT5 / Fold change vs veh, CCT5 / RFU, WDR92 / Fold change vs veh, WDR92 / RFU, CUX1 / Fold change vs veh, CUX1 / RFU, TTC7A / Fold change vs veh, TTC7A / RFU, TMEM135 / Fold change vs veh, TMEM135 / RFU, DEPTOR / Fold change vs veh, DEPTOR / RFU, CPM / Fold change vs veh, CPM / RFU, DNAJB6 / Fold change vs veh, DNAJB6 / RFU, CACNA2D3 / Fold change vs veh, CACNA2D3 / RFU, DTX4 / Fold change vs veh, DTX4 / RFU, TFCP2 / Fold change vs veh, TFCP2 / RFU, GMCL1 /// GMCL1P1 / Fold change vs veh, GMCL1 /// GMCL1P1 / RFU, AEBP2 / Fold change vs veh, AEBP2 / RFU, SNHG1 /// SNORD22 /// SNORD25 /// SNORD26 /// SNORD27 /// SNORD28 /// SNORD29 /// SNORD31 / Fold change vs veh, SNHG1 /// SNORD22 /// SNORD25 /// SNORD26 /// SNORD27 /// SNORD28 /// SNORD29 /// SNORD31 / Fold change (Aza/veh), C12orf56 (ProbeSet 11735607_a_at) / Fold change (ACY-1035/veh), C12orf56 (ProbeSet 11735607_a_at) / Fold change (Aza/veh), FGFR1OP (ProbeSet 11751329_s_at) / Fold change (ACY-1035/veh), FGFR1OP (ProbeSet 11751329_s_at) / Fold change (Aza/veh), VPS36 (ProbeSet 11739960_a_at) / Fold change (ACY-1035/veh), VPS36 (ProbeSet 11739960_a_at) / RFU SYPL1 (11715823_x_at) / Fold change /veh SYPL1 (11715823_x_at) / RFU IGFBP7 (11715501_s_at) / Fold change /veh IGFBP7 (11715501_s_at) / RFU REEP3 (11722064_at) / Fold change /veh REEP3 (11722064_at) / RFU IGLL1 (11728026_x_at) / Fold change /veh IGLL1 (11728026_x_at): dose or concentration left out as unconfirmed
# Settings: ProbeSet 11732277_a_at; LIST D
smiles,measurement,value
Nc1ncn([C@@H]2O[C@H](CO)[C@@H](O)[C@H]2O)c(=O)n1 [azacitidine],"Fold change vs veh, FOXP1",0.59

# From paper PMC5218480 (PLoS ONE, 2017)
